Results published in US12077503B2, “Substituted cyclic amides and their use as herbicides” (FMC CORPORATION, priority 2015, dated 2024).

How the values were obtained:
Format in all cases: in vivo
[1] = test system: giant foxtail (Setaria faberii); assay: Test A postemergence; conditions: Setaria faberi, post-emergence, 240 h, Postemergence, read-out: Foxtail, Giant plant response rating (0 to 100 scale)
Method in brief: (§1)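 Visual injury scores from 0, no effect, to 100, complete control, were assigned versus untreated controls roughly 10 d after treatment in the greenhouse. Test chemicals, formulated with surfactant in a non-phytotoxic solvent, were applied to planted seeds as a preemergence soil spray or postemergence to one- to two-leaf plants 2 to 10 cm tall, in loam–sand soil.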

[2] = test system: barnyardgrass (Echinochloa crus-galli); assay: Test A postemergence; conditions: Echinochloa crus-galli, post-emergence, 240 h, Postemergence
Method in brief: as §1

[3] = test system: wheat (Triticum aestivum); assay: Test A postemergence; conditions: Triticum aestivum, post-emergence, 240 h, Postemergence, read-out: Wheat plant response rating (0 to 100 scale)
Method in brief: as §1

Kochia (Kochia scoparia) [4] = assay: Test A postemergence; conditions: Bassia scoparia, post-emergence, 240 h, Postemergence, read-out: Kochia plant response rating (0 to 100 scale)
Method in brief: as §1

[5] = test system: pigweed (Amaranthus retroflexus); assay: Test A postemergence; conditions: Amaranthus retroflexus, post-emergence, 240 h, Postemergence, read-out: Pigweed plant response rating (0 to 100 scale)
Method in brief: as §1

[6] = test system: ryegrass, Italian (Italian ryegrass, Lolium multiflorum); assay: Test A postemergence; conditions: Lolium multiflorum, post-emergence, 240 h, Postemergence, read-out: Ryegrass, Italian plant response rating (0 to 100 scale)
Method in brief: as §1

[7] = test system: blackgrass (Alopecurus myosuroides); assay: Test A postemergence; conditions: Alopecurus myosuroides, post-emergence, 240 h, Postemergence, read-out: Blackgrass plant response rating (0 to 100 scale)
Method in brief: as §1

corn (Zea mays) = assay: Test A postemergence; conditions: Zea mays, post-emergence, 240 h, Postemergence, read-out: Corn plant response rating (0 to 100 scale)
Method in brief: as §1

[8] = test system: Galium (catchweed bedstraw, Galium aparine); assay: Test A postemergence; conditions: Galium, post-emergence, 240 h, Postemergence, read-out: Galium plant response rating (0 to 100 scale)
Method in brief: as §1

[9] = test system: ragweed (common ragweed, Ambrosia elatior); assay: Test A postemergence; conditions: Ambrosia artemisiifolia, post-emergence, 240 h, Postemergence, read-out: Ragweed plant response rating (0 to 100 scale)
Method in brief: as §1

[10] = test system: giant foxtail (Setaria faberii); assay: Test A preemergence; conditions: Setaria faberi, pre-emergence, 240 h, 0 to 100 scale where 0 is no effect and 100 is complete control, read-out: Foxtail, Giant plant response rating
Method in brief: as §1

[11] = test system: barnyardgrass (Echinochloa crus-galli); assay: Test A preemergence; conditions: Echinochloa crus-galli, pre-emergence, 240 h, 0 to 100 scale where 0 is no effect and 100 is complete control, read-out: Barnyardgrass plant response rating
Method in brief: as §1

Kochia (Kochia scoparia) [12] = assay: Test A preemergence; conditions: Bassia scoparia, pre-emergence, 240 h, 0 to 100 scale where 0 is no effect and 100 is complete control, read-out: Kochia plant response rating
Method in brief: as §1

[13] = test system: pigweed (Amaranthus retroflexus); assay: Test A preemergence; conditions: Amaranthus retroflexus, pre-emergence, 240 h, 0 to 100 scale where 0 is no effect and 100 is complete control, read-out: Pigweed plant response rating
[14] = test system: ryegrass, Italian (Italian ryegrass, Lolium multiflorum); assay: Test A preemergence; conditions: Lolium multiflorum, pre-emergence, 240 h, 0 to 100 scale where 0 is no effect and 100 is complete control, read-out: Ryegrass, Italian plant response rating
Method in brief: as §1

[15] = test system: ragweed (common ragweed, Ambrosia elatior); assay: Test A preemergence; conditions: Ambrosia artemisiifolia, pre-emergence, 240 h, 0 to 100 scale where 0 is no effect and 100 is complete control, read-out: Ragweed plant response rating
Method in brief: as §1

[16] = test system: sedge, umbrella (small-flower umbrella sedge, Cyperus difformis); assay: Test B flooded paddy test; conditions: Cyperus difformis, 250 g ai/ha, Flood; 0 to 100 scale where 0 is no effect and 100 is complete control; read-out: Sedge, Umbrella plant response rating
Method in brief: (§2)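 Visual ratings (0 none to 100 complete control) are relative to untreated plants, taken 13–15 d after treatment in a greenhouse. Test material went straight into floodwater standing 3 cm above the soil, kept constant, on plants at the 2-leaf stage.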

[17] = test system: barnyardgrass (Echinochloa crus-galli); assay: Test B flooded paddy test; conditions: Echinochloa crus-galli, 250 g ai/ha, Flood; 0 to 100 scale where 0 is no effect and 100 is complete control; read-out: Barnyardgrass plant response rating
Method in brief: as §2

[18] = test system: ducksalad (Heteranthera limosa); assay: Test B flooded paddy test; conditions: Heteranthera limosa, 250 g ai/ha, Flood; 0 to 100 scale where 0 is no effect and 100 is complete control; read-out: Ducksalad plant response rating
Method in brief: as §2

rice (Oryra sativa) = assay: Test B flooded paddy test; conditions: Oryza sativa, 250 g ai/ha, Flood; 0 to 100 scale where 0 is no effect and 100 is complete control; read-out: Rice plant response rating
Method in brief: as §2

[19] = 125 g ai/ha, visual rating about 10 d after treatment
[20] = 31 g ai/ha, 0 is no effect, 100 is complete control
[21] = 125 g ai/ha, preemergence, visual injury rating, approximately 10 d

CN1C[C@H](c2csc3c2CCCC3)[C@@H](C(=O)Nc2cccc(F)c2F)C1=O [Compound 1276]
pest or weed control at 125 g/ha [1, 19]: 60% | pest or weed control at 31 g/ha [1, 20]: 30% | pest or weed control at 125 g/ha ([2]; 125 g ai/ha, visual rating about 10 d after treatment, read-out: Barnyardgrass plant response rating (0 to 100 scale, 0 no effect, 100 complete control)): 100% | pest or weed control at 31 g/ha ([2]; 31 g ai/ha, 0 is no effect, 100 is complete control, read-out: Barnyardgrass plant response rating (0 to 100 scale)): 70% | plant injury at 125 g/ha [3, 19]: 0% | plant injury at 31 g/ha [3, 20]: 0% | pest or weed control at 125 g/ha (Kochia (Kochia scoparia) [4]; [19]): 0% | pest or weed control at 31 g/ha (Kochia (Kochia scoparia) [4]; [20]): 0% | pest or weed control at 125 g/ha [5, 19]: 0% | pest or weed control at 31 g/ha [5, 20]: 0% | pest or weed control at 125 g/ha [6, 19]: 0% | pest or weed control at 31 g/ha [6, 20]: 0% | pest or weed control at 125 g/ha [7, 19]: 0% | pest or weed control at 31 g/ha [7, 20]: 0% | plant injury at 125 g/ha (corn (Zea mays); [19]): 0% | plant injury at 31 g/ha (corn (Zea mays); [20]): 0% | pest or weed control at 125 g/ha [8, 19]: 0% | pest or weed control at 31 g/ha [8, 20]: 0% | pest or weed control at 125 g/ha [9, 19]: 0% | pest or weed control at 31 g/ha [9, 20]: 0% | pest or weed control at 31 g/ha ([10]; 31 g ai/ha, Preemergence): 90% | pest or weed control at 125 g/ha [10, 21]: 100% | pest or weed control at 31 g/ha ([11]; 31 g ai/ha, Preemergence): 90% | pest or weed control at 125 g/ha [11, 21]: 100% | pest or weed control at 31 g/ha (Kochia (Kochia scoparia) [12]; 31 g ai/ha, Preemergence): 30% | pest or weed control at 125 g/ha (Kochia (Kochia scoparia) [12]; [21]): 60% | pest or weed control at 31 g/ha ([13]; 31 g ai/ha, Preemergence): 0% | pest or weed control at 125 g/ha [13, 21]: 30% | pest or weed control at 31 g/ha ([14]; 31 g ai/ha, Preemergence): 0% | pest or weed control at 125 g/ha [14, 21]: 30% | pest or weed control at 31 g/ha ([15]; 31 g ai/ha, Preemergence): 20% | pest or weed control at 125 g/ha [15, 21]: 80% | pest or weed control at 250 g/ha [16]: 0% | pest or weed control at 250 g/ha [17]: 65% | pest or weed control at 250 g/ha [18]: 90% | pest or weed control at 250 g/ha (rice (Oryra sativa)): 25%
